We go through one molecule from patent US8337835B2, “Use of an endogenous ligand for peroxisome proliferator activated receptor alpha to treat liver disorders” (priority 2009, dated 2012).

The assay deals with PPARα target gene (ACO and CPT-1) expression. The assay is described as follows: PPARα target gene (ACO and CPT-1) expression by quantitative RT-PCR in Hepa 1-6 cells. The assay is classed as cell-based. The note with it: Hepa 1-6 mouse hepatoma cells, 24 h, serum-free DMEM. The method, then:
RT-PCR gene expression analysis and binding assays were employed to address this objective. Wy14,643, 16:0/18:1-GPC, and 18:1/16:0-GPC on PPARα target gene (ACO and CPT-1) expression was measured by quantitative RT-PCR in Hepa 1-6 cells treated for 24 h as in FIG. 6A. Results are mean±SEM of 9 separate experiments. *, P<0.05 compared to control (Ctrl, 80% PBS/20% DMSO).
The C57BL/6 mouse hepatoma cell line Hepa 1-6 (ATCC, CRL-1830) was expanded in DMEM with 10% fetal bovine serum. For experiments, cells were cultured to 50-60% confluence, washed twice with PBS, and the medium was changed to serum-free DMEM supplemented with the various types and concentrations of phosphatidylcholine (sonicated to homogeneity in PBS/1% ethanol/4% fatty acid-free BSA), Wy14,643 (dissolved in 80% PBS/20% DMSO), or vehicle-only solutions. 24 h later, cells were washed, RNA prepared, and ACO and CPT-1 expression levels were determined by quantitative RT-PCR (see FIG. 6). For siRNA experiments, 50-60% confluent cells were treated with siRNAs or their scrambled controls (all diluted in PBS) for 72 h. Following the 72 h siRNA treatment, another set of cells received 16:0/18:1-GPC (using a concentration based on dose-response experiments) for an additional 24 h. Stealth™ siRNA oligonucleotides were used to inhibit the gene expression of mouse ChPT1 ([…]) (SEQ ID NO: 1) and CEPT1 ([…]) (SEQ ID NO: 2) were from Invitrogen (Carlsbad, Calif.).
Total RNA was extracted from Hepa 1-6 cells and liver using Trizol (Invitrogen) and treated with DNase I (RNase-free, Roche Molecular Biochemicals). Reverse transcription to cDNA and real-time quantitative PCR were performed using previously published procedures and primer-probe sequences for ACO and CPT-1 (Chakravarthy et al., 2005). […] Relative mRNA levels were calculated using both the comparative CT and standard curve methods normalized to ribosomal protein L32, an invariant internal control. […]

On to `CCCCCCCC/C=C\CCCCCCCC(=O)OC[C@H](COP(=O)([O-])OCC[N+](C)(C)C)OC(=O)CCCCCCCCCCCCCCC` [18:1/16:0-GPC, 1-oleoyl-2-palmitoyl-sn-glycero-3-phosphocholine, reference compound], for which the “expression of PPARα-dependent genes ACO and CPT-I” value is “does not induce PPARα-dependent gene expression”.
